Source: patent US20060167229A1, “Biologically active peptide conjugates” (priority 2002, published 2006)
Marks after values point to notes of the source that are not given here. Ends that are not written are not given here.

Assays:
[1] = system: Masugi nephritis rat model; assay: Masugi nephritis rat model; conditions: for urine protein level: 24 h urine; for spleen index / Serum creatinine level: after three weeks of treatment; for spleen index: placebo 4.8 ± 1.1, normal 2.4 ± 0.1; for Serum creatinine level: placebo 265 ± 212, normal 80 ± 1
NK cell = NK cell cytotoxicity activity test (spleen cells of treated mice against YAC-1 target cells, MTT); assay type: in vivo, BALB/c mice; conditions: for NK cell cytotoxic activity, X ± SD (%): healthy mice; for effect on the cytotoxic activity of NK cells (summary): statistically significant difference from saline in any of the dosage groups 0.5-500 μg/kg/day
Method: (§1) The above substances were all dissolved in 0.5 ml saline and injected intraperitoneal (i.p.) for 15 continuous days, once per day.
(§2) Ten mice per group. The day after the last test substance administration, the mice were sacrificed by cervical dislocation. The spleen was isolated aseptically and manually dispersed in cold D-Hank's solution using an injection needle. The dispersed cell suspension was further sieved through a 100 gauge 150 μm diameter stainless steel sieve. After centrifugation at 200 g for 10 minutes, the supernatant was discarded. The cell pellet was re-suspended in 10 volume of Tris-NH4Cl buffer and then kept standing still for 10 minutes at room temperature. The suspended cells were collected by centrifugation at 150 g for 10 minutes. The cells were washed 2-4 times with cold D-Hank's solution by re-suspending and collecting by centrifugation with condition as described above. The washed cells were then diluted to the desired cell densities by RPMI-1640 culture medium, containing 10% fetal bovine serum.
Mice spleen cells were prepared to 4×10^6/ml as described in section 1.1 above. Target cells YAC-1 were brought to log phase and adjusted to 1×10^5/ml. Using a 96 wells cell culture plate, […] were added to the control well containing only the spleen cells; […] and 100 μl culture medium were added to the control well containing only target cells; 100 μl mouse spleen cells and 100 μl target cells were added to the NK activity assay well. Three parallel sets of the above were prepared per mouse.
Samples were centrifuged at 150 g for 10 minutes to collect the cells. The supernatant was discarded and 50 μl/well MTT of 1 mg/ml was added. The reaction-mixture was then shaken for 2 minutes, and incubated at 37° C., 5% CO2 for 4 hours. The supernatant was discarded after centrifugation at 150 g for 10 minutes. […] 40 mM HCl-2-propanol was added and shaken for 3 minutes. An ELISA reader was used to obtain OD570 nm of each well referenced at 630 nm.

interferon (IFN) = system: interferon (IFN); set-up: species or system BALB/c mice; conditions: mouse, in vivo; for activity of T lymphocyte in secreting IFN, X ± SD (IU): ip
anti-SRBC antibody = assay: Sheep Red Blood Cell (SRBC) hemolysis test, antibody formation; assay type: in vivo, BALB/c mice; conditions: for anti-SRBC antibody formation, X ± SD (Unit): healthy mice, SRBC day 12 (IFN-γ, IL-2 3×10^5 IU/kg/day), saline 32 ± 7
Method: Sheep red blood cells (SRBC) were prepared by collecting blood from cervical vein and put into a sterile flask with glass beads. The flask was shaken for 3 minutes and the blood then mixed with Alsever solution (glucose 2.05 g, NaCl 0.4 g, […] 0.8 g, adjust to 100 ml with distilled water) and stored at 4° C. Immediately before use, samples were centrifuged at 130 g, 5 minutes to collect the SRBC. The cells were washed two times by re-suspension and centrifugation in normal saline. Then the cell pellet was collected by centrifugation at 180 g for 10 minutes and re-suspended in saline to make the final working SRBC suspension, 2% (v/v).
Complement was prepared by adding 10 volumes of fresh Cavy serum into one volume centrifuge packed SRBC, and then gently shaking for 30 minutes at 4° C. The SRBC was removed by centrifugation at 200 g for 10 minutes. 10 volumes of normal saline were added to obtain the working complement solution.
The test substances were administered as described in section 1.1, plus intraperitoneal injection 0.2 ml SRBC per mouse on day 12. On the day after the last test substance administration (day 16), blood was collected from the eye canthus and left at room temperature for one hour for serum exudation. After centrifugation at 200 g for 10 minutes, the serum was diluted by 500 times with normal saline.
To 1 ml diluted mouse serum of each mouse, 0.5 ml SRBC suspension was added. Ice cold. Then 1 ml working complement solution was added and incubated at 37° C. water bath for 10 minutes. Reactions were terminated by ice cold. Samples were then centrifuged at 200 g for 10 minutes to obtain the supernatant.
To 1 ml of this supernatant, 3 ml Drabkin solution was added and left at room temperature for 10 minutes. OD540 nm was obtained.
Reference OD540 nm was obtained by mixing 0.25 ml SRBC suspension with Drabkin solution to 4 ml and placed at room temperature for 10 minutes before OD540 nm was taken.
Sample serum index=(OD540 nm of test sample÷reference OD540 nm)×500

mononuclear phagocyte = assay: Carbon particle clearance test, phagocytosis function; assay type: in vivo, BALB/c mice; set-up: key to X ± SD (phagocytotic index): α = cube root of K × (body weight ÷ liver+spleen weight); conditions: for X ± SD (phagocytotic index): healthy mice, peptide 5 μg/kg/day i.p. 15 days (IFN-γ, IL-2 3×10^5 IU/kg/day), saline 5.1 ± 0.6; for effect on the phagocytotic activity of mononuclear phagocyte (summary): statistically significant difference from saline in any of the dosage groups 0.5-500 μg/kg/day
Method: On the next day after the last test substance administration (day 16), the mice were injected with […] body weight India ink (5 times dilution with normal saline) from the tail vein.
One minute and five minutes after Indian ink injection, 20 μl blood was obtained from the eye canthus with a heparinized tubing. The blood was mixed with 2 ml 0.1% w/v Na2CO3 and then OD680 nm obtained. The outline clear index K was calculated by the following formula: K=(lgA1−lgA2)÷(t2−t1)
(§3) One day after the last test substance administration (day 16), the liver, spleen, and thymus gland were separated and blotted dry with filter paper and weighed. The phagocytosis index α was calculated as below: α=(^3√{square root over ( )}K)(W÷WLS)

thymus gland = assay: Immunity organ weight test, thymus gland index; assay type: in vivo, BALB/c mice; conditions: for weight of thymus gland (thymus gland index), X ± SD (%): healthy mice, saline 0.12 ± 0.02; for effect on the weight of the thymus gland (summary): statistically significant difference from saline in any of the dosage groups 0.5-500 μg/kg/day
Method: as §3
Thymus gland index (%)=(thymus weight/body weight)×100%

spleen = assay: Immunity organ weight test, spleen index; assay type: in vivo, BALB/c mice; conditions: for weight of spleen (spleen index), X ± SD (%): healthy mice, peptide 500 μg/kg/day i.p. 15 days, saline 0.53 ± 0.05; for effect on the weight of the spleen (summary): statistically significant difference from saline in any of the dosage groups 0.5-500 μg/kg/day
Method: as §3
Spleen index (%)=(spleen weight/body weight)×100%

T lymphocyte = T lymphocyte transformation test (ConA-stimulated spleen cells of treated mice, MTT); assay type: in vivo, BALB/c mice
Method: as §1, §2
Spleen cells of density 1×10^6/ml were placed onto a 96 wells cell culture plate, 100 μL/well, three parallel wells each of the assay sample and control sample per mouse. To the assay wells, 100 μl/well ConA of 100 μg/ml in RPMI-1640 was added, and […] plain RPMI-1640 was used for the controls. The cells were incubated for 66 hrs at 37° C., 5% CO2. The cells were then pelleted by centrifugation at 150 g for 10 minutes.
50 μl/well MTT of 1 mg/ml in RPMI-1640 was added to the cell pellet and the cells re-suspended by shaking for 2 minutes. The incubation was continued for 4 hours. The supernatant was discarded after centrifugation at 150 g for 10 minutes. 120 μl 40 mM HCl-2-propanol was added to the cell pellet and shaken for 3 minutes. […]
Each mouse formed three assay wells and three control wells. The Stimulation Index (SI) of each mouse was obtained by first deriving the average OD of the three parallel wells, then dividing the value of the assay wells by the control wells.

[2] = Week 1, peptides 50 μg/kg/day, hydrocortisone 3.3 mg/kg/day i.p., placebo 22.9 ± 22, normal 1.7 ± 1.3
[3] = Week 2, peptides 50 μg/kg/day i.p., hydrocortisone dose halved after first week, placebo 17.2 ± 14.5, normal 2.3 ± 1.1
[4] = Week 3, peptides 50 μg/kg/day i.p., hydrocortisone dose halved after first week, placebo 20.2 ± 29.0, normal 0.4 ± 0.2
[5] = peptide 0.5 μg/kg/day i.p. 15 days
[6] = peptide 5 μg/kg/day i.p. 15 days
[7] = peptide 50 μg/kg/day i.p. 15 days
[8] = peptide 500 μg/kg/day i.p. 15 days
[9] = peptide 5 μg/kg/day i.p. 15 days (IFN-γ, IL-2 3×10^5 IU/kg/day)
[10] = statistically significant difference from saline in any of the dosage groups 0.5-500 μg/kg/day

Compound	urine protein level [1, 2] [mg]	urine protein level [1, 3] [mg]	urine protein level [1, 4] [mg]	spleen index ([1]; peptides 50 μg/kg/day i.p.)	Serum creatinine level ([1]; peptides 50 μg/kg/day i.p.) [µmol/L]	effect on the cytotoxic activity of NK cells (summary) (NK cell)	effect on the secretion of IFN by T lymphocytes (summary) (interferon (IFN))	activity of T lymphocyte in secreting IFN, X ± SD (IU) (interferon (IFN))	anti-SRBC antibody formation, X ± SD (Unit) (anti-SRBC antibody; [5])	anti-SRBC antibody formation, X ± SD (Unit) (anti-SRBC antibody; [6])	anti-SRBC antibody formation, X ± SD (Unit) (anti-SRBC antibody; [7])	anti-SRBC antibody formation, X ± SD (Unit) (anti-SRBC antibody; [8])	X ± SD (phagocytotic index) (mononuclear phagocyte)	effect on the phagocytotic activity of mononuclear phagocyte (summary) (mononuclear phagocyte)	weight of thymus gland (thymus gland index), X ± SD (%) (thymus gland; [9])	effect on the weight of the thymus gland (summary) (thymus gland)	weight of spleen (spleen index), X ± SD (%) (spleen)	effect on the weight of the spleen (summary) (spleen)	other results
C[C@]12CCC(=O)C=C1CC[C@@H]1[C@@H]2[C@@H](O)C[C@@]2(C)[C@H]1CC[C@]2(O)C(=O)CO [hydrocortisone, Hydrocortisone, reference compound]	3.1 ± 2.0	7.5 ± 7.7	7.6 ± 7.1	4.5 ± 1.4 ×10^−3	239 ± 107	–	–	–	–	–	–	–	–	–	–	–	–	–	growth rate of the rats ([1]; peptides 50 μg/kg/day, hydrocortisone 3.3 mg/kg/day i.p.): slower growth rate than normal
LRVAPQEHPVL [CMS013]	–	–	–	–	–	increase	enhance	154 ± 15*^@^ IU	7 ± 1 Unit	93 ± 28*^@ Unit	70 ± 9*^@ Unit	80 ± 16*^@ Unit	6.7 ± 0.2	enhance	0.21 ± 0.05 %	increase	0.44 ± 0.07	decrease	NK cell cytotoxic activity, X ± SD (%) (NK cell; peptide 500 μg/kg/day i.p. 15 days (IFN-γ, IL-2 3×10^5 IU/kg/day), saline 63 ± 9): 84 ± 9 %
MATAASSSSL [CMS021]	–	–	–	–	–	increase	enhance	143 ± 17*^@^ IU	57 ± 9*^@ Unit	82 ± 30*^@ Unit	94 ± 20*^@^ Unit	–	–	–	0.20 ± 0.06 %	increase	0.36 ± 0.04	decrease	X ± SD (stimulation index) (T lymphocyte; healthy mice, peptide 500 μg/kg/day i.p. 15 days (IFN-γ, IL-2 3×10^5 IU/kg/day), saline 1.3 ± 0.1): 1.6 ± 0.1; effect on T lymphocyte transformation (summary) (T lymphocyte; [10]): enhance; NK cell cytotoxic activity, X ± SD (%) (NK cell; peptide 50 μg/kg/day i.p. 15 days (IFN-γ, IL-2 3×10^5 IU/kg/day), saline 56 ± 8): 88 ± 12*^@^ %; effect on the synthesis of anti-SRBC antibody upon the antigenic challenge (summary) (anti-SRBC antibody; [10]): enhance
VGMGQKDSY	7.0 ± 3.7	5.5 ± 7.9	3.3 ± 3.4	3.3 ± 0.8 ×10^−3	67 ± 1	–	–	–	3 ± 1 Unit	–	–	66 ± 16 Unit	6.7 ± 1.2	enhance	0.24 ± 0.04*^@^ %	increase	–	–	weight of thymus gland (thymus gland index), X ± SD (%) (thymus gland; peptide 0.5 μg/kg/day i.p. 15 days (IFN-γ, IL-2 3×10^5 IU/kg/day)): 0.20 ± 0.03 %; weight of thymus gland (thymus gland index), X ± SD (%) (thymus gland; peptide 50 μg/kg/day i.p. 15 days (IFN-γ, IL-2 3×10^5 IU/kg/day)): 0.23 ± 0.02*^@^ %; renal pathological microscopic examination ([1]; peptides 50 μg/kg/day i.p. 3 weeks, 6 heaviest kidneys per group): all pathological parameters of all rats were normal
